Test: gradient 5% acetonitrile 3 min, to 50% in 2 min, to 85% in 15 min, held 3 min, 100 µL/min
Conditions: column: Zorbax Extend-C18 2.1 x 50 mm; eluents: water / acetonitrile, 0.1% formic acid
Procedure, shortened: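 Retention times of pure standards were taken from adduct peaks that were selected by computer and manually inspected. Over 3 months, mixtures of ~100 molecules were run by HPLC–quadrupole time-of-flight mass spectrometry in positive and negative ionization mode. The Zorbax Extend-C18 column (2.1 × 50 mm, 1.8 μm) ran at 100 μL/min in water and acetonitrile, each containing 0.1% formic acid, with 40 μL dead volume and 900 μL dwell volume.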

Structure (SMILES) | RP-LC retention time [s]
COc1ccc(NC(=O)C2CN(S(=O)(=O)c3cccnc3)CC23CCCCC3)cc1 (centres undefined) | 890
Cc1cc(N2C=C(C#N)S(=O)(=O)c3ccc(F)cc32)ccc1Br | 979
CC1CCN(c2cc(-n3ccnc3)ncn2)CC1 | 651
Cc1nc2ccn(Cc3ccco3)c(=O)c2cc1C(=O)NCCC(C)C | 776
CCCn1cc(CCNC(=O)Nc2ccccc2Cl)c2cccnc21 | 812
O=C(NCC1CCN(c2ncccn2)CC1)c1cccc(C(F)(F)F)c1 | 749
C[C@H]1CN(C(=O)Nc2ccccc2Cl)C[C@@H]1c1nc(-c2ccncc2)no1 | 854
Cc1nc(-c2ccc(-c3noc(CNC(=O)Cc4ccc(Cl)cc4)n3)cc2)cs1 | 990
Cc1nc(-c2cccnc2)nc2c1CCC(=O)N2Cc1ccccc1 | 766
Cc1ccc(S(=O)(=O)N2CCc3c(c(-c4nnc(-c5ccc(F)cc5)o4)nn3C)C2)cc1 | 971
O=C(c1ccsc1)N1CCN(S(=O)(=O)c2cc(-c3noc(C4CCC4)n3)cs2)CC1 | 985
O=C(c1cccs1)N1CC(C(=O)N2CCN(c3ncccn3)CC2)C1 | 604
COCc1noc([C@@H]2CN(C(=O)c3noc(C)c3COC)C[C@H]2C(N)=O)n1 | 625
COc1ccc(-c2nc3ccc(Cl)cn3c2Nc2ccc3c(c2)OCO3)cc1 | 748
O=C(NCc1c(F)cccc1Cl)C(=O)c1c[nH]c2ccccc12 | 931
O=c1c2nc(-c3cccc(Cl)c3)cn2ccn1-c1ccc(F)cc1 | 864
O=C1CC(c2ccc(C(=O)O)cc2)c2scc(-c3cccc(F)c3)c2N1 (centres undefined) | 823
COc1ccc(-c2nc3cc(C)ccn3c2NC(=O)c2ccc(Cl)cc2Cl)cc1 | 753
Cc1nn2c(CNC(=O)C3CCC3)c(-c3ccccc3)nc2s1 | 743

Structure (SMILES) | RP-LC retention time [s]
CC(C(=O)NCc1cccs1)S(=O)(=O)c1ccc2c(c1)S(=O)(=O)N=CN2 (centres undefined) | 628
Cc1ccc(CN2CCn3c(nnc3[C@@H]3C[C@@H](O)CN3Cc3cccnc3)C2)s1 | 566
Cc1ccc(CNS(=O)(=O)c2ccc3c(c2)C(=O)N(C)c2ncccc2O3)cc1 | 932
Cc1cc(C)n2c(Nc3cccc(C(F)(F)F)c3)c(-c3cc(Br)ccc3O)nc2n1 | 1060
N#Cc1ccc(Cn2cc(C(=O)C(N)=O)c3ccccc32)cc1 | 810
CC(=O)Nc1ccc(OCC(=O)O)nc1 | 574
O=C(Nc1ccccc1NC(=O)c1ccccc1C(F)(F)F)c1cccs1 | 835
CCOc1cccc(C(=O)Nc2nc(-c3ccc(C(C)(C)C)cc3)cs2)c1 | 1430
Cc1ccc(S(=O)(=O)N2CCc3nc[nH]c3C2)cc1Cl | 642
CCOC(=O)c1nc(N(CC)c2cc(C)ccc2C)c2ccccc2n1 | 1130
CN(C1CCc2nn(C)c(=O)n2CC1)S(=O)(=O)c1cccc2cccnc12 (centres undefined) | 671
CCCC(=O)NC1CCN(c2ccc(F)cc2)C1=O (centres undefined) | 659
Cc1ccc(-c2nc(-c3ccc4c(c3)oc(=O)n4C(C)C)no2)cc1 | 1280
CC(C)(NC(=O)c1cc(Cl)c2ccccc2c1O)C(=O)O | 1010
COC(=O)c1cnc2nc(C)ccc2c1NCc1ccccc1 | 658
CCc1noc2nc(C)n(CC(=O)NC3CCCc4ccccc43)c(=O)c12 (centres undefined) | 867
CCOC(=O)C1CCN(CC(O)COC2CCCC2)CC1 (centres undefined) | 562
Cc1c(C)n(-c2ccccc2)c2ncn(CC(=O)NC(C)Cc3ccco3)c(=O)c12 (centres undefined) | 848
Cn1cnc(S(=O)(=O)N2[C@H]3CC[C@@H]2c2cnc(-c4ccc(F)cc4)nc2C3)c1 | 764

Structure (SMILES) | RP-LC retention time [s]
O=c1c2cnc3nc(-c4ccccc4Cl)nn3c2ccn1CCc1c[nH]c2ccc(F)cc12 | 947
CC(=O)Nc1ccc(SCCCC(=O)N2CCc3ccccc32)nn1 | 706
O=C(Nc1c(-c2ccccc2)nc2ccccn12)c1cc(Br)ccc1Cl | 717
O=C(NC(Cc1c[nH]c2ccccc12)C(=O)O)c1ccc(Cl)cc1 (centres undefined) | 724
CCCn1cc(S(=O)(=O)NCc2cccc(C)c2)c2cccnc21 | 943
COc1ccc(-c2cn3cccnc3n2)cc1NC(=O)c1cccc(OC)c1OC | 718
CCCNC(=O)c1n[nH]c2c1CCCCCC2 | 776
Cc1ccccc1Nc1c(-c2cccc(N(C)C)c2)nc2ccc(Br)cn12 | 847
Cc1csc(-c2ccc(CNC(=O)c3cc4ccccc4[nH]3)cc2)n1 | 938
COc1ccc(OCC(=O)N2CCN(Cc3noc4ccccc34)CC2)cc1 | 711
CCc1ccc(C(=O)N2CCCn3nc(-c4cccs4)cc3C2)cc1 | 913
O=C(C1CCCN(S(=O)(=O)N2CCCCC2)C1)N1CCN(Cc2ccc3c(c2)OCO3)CC1 (centres undefined) | 679
CCN(CC)S(=O)(=O)c1cc(-c2nnc(-c3ccccc3Cl)o2)ccc1C | 1130
Cc1ccsc1C(=O)N1CCC(N2C(=O)C(OCC3CC3)C23CCCCC3)CC1 (centres undefined) | 1020
COc1ccc2nc(C(=O)NCc3cccc(Br)c3)cn2n1 | 896
CS(=O)(=O)Nc1ccc(C2(C(=O)NC3CCCC3)CCCCC2)cc1 | 634
O=C(NC1CCCCC1)c1nc(Nc2ccccc2)c2ccccc2n1 | 861
Cc1c(F)cccc1NC(=O)N1CC(Cc2nncn2C(C)C)C1 | 659

Now from value to molecule:

RP-LC retention time [s] | Structure (SMILES)
648 | COc1ccc2[nH]c(=O)c(CCC(=O)NCc3ccc(OC)c(OC)c3)cc2c1
583 | CCCN1CCN(c2ncnc3sc(C(=O)NCCCN4CCCC4)c(C)c23)CC1
648 | COc1ccc(OC)c(NC(=O)N2CCc3c(c(C(=O)N4CCOCC4)nn3C)C2)c1
792 | CC(CNC(=O)C1CCN(S(=O)(=O)c2ccc3c(c2)NC(=O)CO3)CC1)c1ccccc1 (centres undefined)
808 | CCOc1ccc(NC(=O)N2CCC[C@@H]2C(=O)NCc2csc(-c3ccccc3)n2)cc1
695 | CCc1noc(NC(C)=O)c1-c1ccc(OC)c(S(=O)(=O)NC(C)C)c1
592 | COC(=O)Nc1ccc(CC(=O)NC2CC2)cc1
846 | COc1ccc(C(=O)N2CCCC(COc3ccc(C(=O)NC(C)C)cc3)C2)cc1F (centres undefined)
808 | CCn1ccc2sc(C)c(C(=O)N3CCN(c4ccc(F)cc4)CC3)c2c1=O
557 | O=C(NCCN1CCN(C(=O)c2cc(=O)c3ccccc3o2)CC1)c1ccsc1
597 | COC(=O)CC(=O)Nc1cc2c(cc1N1CCOCC1)n(C)c(=O)n2C
905 | COc1ccccc1NC(=O)C1C(=O)NC2(C)CC1c1ccccc1O2 (centres undefined)
698 | Cc1oc(-c2ccc(C(=O)NCCN3CCCC3)cc2)nc1COc1ccccc1
741 | O=C(NCc1ccccc1)C1CCN(C(=O)C2Sc3ccccc3NC2=O)CC1 (centres undefined)
896 | Cc1[nH]c(C(=O)N2CCCC(C(=O)NC(C)c3ccccc3)C2)c(C)c1C(=O)OC(C)C (centres undefined)
829 | Cc1cccc(N2CCN(C(=O)c3cc(C)n4nccc4n3)CC2)c1
743 | O=C(NC1CCCN(c2ccc(=O)[nH]n2)C1)c1cc2cc(Cl)ccc2[nH]1 (centres undefined)

RP-LC retention time [s] | Structure (SMILES)
798 | CCOC(=O)C1CCN(C(=O)c2ccc3c(c2)CCCN3S(=O)(=O)CC)CC1
860 | O=C(Nc1ccc2c(c1)OCO2)c1nnc(C(=O)N2CCCC(C(=O)NC3CCCC3)C2)s1 (centres undefined)
674 | N#Cc1cccc(NC(=O)Cn2nc3n(c2=O)CCCCC3)c1
640 | Cc1cc(C)c(S(=O)(=O)N2CCC(n3cnc4ccc(C)cc4c3=O)CC2)c(C)c1
750 | COC(=O)c1cc(OCC(=O)Nc2ccc(F)cc2)c2cc(OC)c(OC)cc2n1
629 | COc1ccc(Nc2c(C(=O)N3CCC(C)CC3)cnc3nc(C)ccc23)cc1OC
767 | COc1ccc(-c2nnc(N3CCC(C(=O)NCc4cccs4)CC3)o2)cc1
614 | COc1ccc(CC(=O)N2CCN(c3cc(C)n4c(C)nnc4n3)CC2)cc1Cl
785 | Cc1ccc(C)c(NC(=O)Cn2nc3cc(C)nc(N4CCCC4)n3c2=O)c1
1010 | CCOc1ccccc1NC(=O)C1CCN(S(=O)(=O)c2cc(-c3noc(C)n3)sc2C)CC1
701 | Cc1cc(N2CCN(C(=O)Nc3ccc(F)c(Cl)c3)CC2)nc(N2CCCC2)n1
630 | CC(NC(=O)C1CCc2nc(N3CCOCC3)ncc2C1)c1ccco1 (centres undefined)
746 | Cc1ccc(NS(=O)(=O)c2cc(-c3[nH]ncc3C(=O)N3CCCC3)oc2C)c(C)c1
749 | CCC(=O)N1c2ccccc2NC2=C(C(=O)CC(C)(C)C2)C1c1ccc(C(=O)OC)cc1 (centres undefined)
1140 | Cc1cc(OCC(=O)N2CCCC(C)C2)nc(-c2ccc(Cl)cc2)n1 (centres undefined)
743 | O=C(CCn1cnc2cc(-c3noc(-c4ccccc4Br)n3)ccc21)N1CCOCC1
